Where “and” joins values, the source holds several entries; their conditions need not be identical. Identical values can stand only once. Inconclusive results and toxic doses are left out. How the source made its calls: active means survival T/C of 150% or more; inactive means T/C below 125% in these data.
Test system: BDF1 mice, B16 melanoma ip, median survival T/C
Experiment: NCI In Vivo Anticancer Drug Screen. Data for tumor model B16 Melanoma (intraperitoneal) in B6D2F1 (BDF1) mice
Settings: endpoint: median survival time, higher = longer survival
Description: The antitumor activity of compounds was measured in mice bearing transplantable tumors. Survival or tumor size were measured and the results are expressed as the measurement made in the treated group (T) divided by the measurement made in the vehicle treated control group (C). The tumor model used in this assay is B16 Melanoma (intraperitoneal) in B6D2F1 (BDF1) mice

[1] = dose: 6.25 mg/kg/injection, schedule: Q01DX009 (ip), vehicle: Klucel (hydroxypropylcellulose) (HPC)
[2] = dose: 12.5 mg/kg/injection, schedule: Q01DX009 (ip), vehicle: Klucel (hydroxypropylcellulose) (HPC)
[3] = dose: 25.0 mg/kg/injection, schedule: Q01DX009 (ip), vehicle: Klucel (hydroxypropylcellulose) (HPC)
[4] = dose: 12.5 mg/kg/injection, schedule: Q01DX009 (ip), vehicle: saline with Tween-80
[5] = dose: 25.0 mg/kg/injection, schedule: Q01DX009 (ip), vehicle: saline with Tween-80
[6] = dose: 50.0 mg/kg/injection, schedule: Q01DX009 (ip), vehicle: saline with Tween-80
[7] = dose: 100.0 mg/kg/injection, schedule: Q01DX009 (ip), vehicle: saline with Tween-80
[8] = dose: 200.0 mg/kg/injection, schedule: Q01DX009 (ip), vehicle: saline with Tween-80
[9] = dose: 50.0 mg/kg/injection, schedule: Q01DX009 (ip), vehicle: Klucel (hydroxypropylcellulose) (HPC)
[10] = dose: 100.0 mg/kg/injection, schedule: Q01DX009 (ip), vehicle: Klucel (hydroxypropylcellulose) (HPC)
[11] = dose: 200.0 mg/kg/injection, schedule: Q01DX009 (ip), vehicle: Klucel (hydroxypropylcellulose) (HPC)
[12] = dose: 12.5 mg/kg/injection, schedule: Q01DX009 (ip), vehicle: saline
[13] = dose: 25.0 mg/kg/injection, schedule: Q01DX009 (ip), vehicle: saline

Measured: T/C

CC(NC(=O)C(F)(F)F)C(=O)O (stereo unspecified)
inactive: dose: 100.0 mg/kg/injection, schedule: Q04DX003 (ip), vehicle: saline 100 % of control | dose: 200.0 mg/kg/injection, schedule: Q04DX003 (ip), vehicle: saline 86 % of control

CCNC(C)(C)C(SSSC(c1ccc(Cl)cc1)C(C)(C)NCC)c1ccc(Cl)cc1 (stereo unspecified)
inactive: [1] 108 % of control | [2] 94 % of control | [3] 89 % of control and 94 % of control

CCCC(=O)Oc1ccc(/C=N/NC(N)=S)nc1
inactive: [4] 105 % of control | [5] 105 % of control | [6] 106 % of control and 112 % of control | [7] 116 % of control | [8] 110 % of control

Cn1c(Cl)nc2c(Cl)nc(Cl)nc21
inactive: dose: 1.0 mg/kg/injection, schedule: Q01DX009 (ip), vehicle: saline 105 % of control | dose: 2.0 mg/kg/injection, schedule: Q01DX009 (ip), vehicle: saline 100 % of control | dose: 4.0 mg/kg/injection, schedule: Q01DX009 (ip), vehicle: saline 97 % of control | dose: 8.0 mg/kg/injection, schedule: Q01DX009 (ip), vehicle: saline 95 % of control | dose: 16.0 mg/kg/injection, schedule: Q01DX009 (ip), vehicle: saline 92 % of control | dose: 32.0 mg/kg/injection, schedule: Q01DX009 (ip), vehicle: saline 92 % of control

CCNc1nc(NC(C)C)nc(SC)n1
inactive: [6] 117 % of control | [7] 106 % of control | [8] 104 % of control

Cc1ccc(S(=O)(=O)NC(CSSCC(NS(=O)(=O)c2ccc(C)cc2)C(=O)OC(C)(C)C)C(=O)OC(C)(C)C)cc1 (stereo unspecified)
inactive: [9] 107 % of control

COc1cc([N+](=O)[O-])c2ncccc2c1
inactive: [10] 115 % of control | [11] 110 % of control

CC(C)OCCCN=C(N)N
inactive: [12] 105 % of control | [13] 106 % of control | dose: 50.0 mg/kg/injection, schedule: Q01DX009 (ip), vehicle: saline 110 % of control

Cc1ccc(C#N)s1
inactive: dose: 3.12 mg/kg/injection, schedule: Q01DX009 (ip), vehicle: other 104 % of control | dose: 6.25 mg/kg/injection, schedule: Q01DX009 (ip), vehicle: other 109 % of control | dose: 12.5 mg/kg/injection, schedule: Q01DX009 (ip), vehicle: other 101 % of control | dose: 25.0 mg/kg/injection, schedule: Q01DX009 (ip), vehicle: other 108 % of control

Nc1nccc2c1ncn2C1OC(CO)C(O)C1O (stereo unspecified)
inactive: dose: 4.6 mg/kg/injection, schedule: Q03HX024 (ip), vehicle: saline with Tween-80 90 % of control and 109 % of control | dose: 9.3 mg/kg/injection, schedule: Q03HX024 (ip), vehicle: saline with Tween-80 94 % of control and 117 % of control | dose: 18.7 mg/kg/injection, schedule: Q03HX024 (ip), vehicle: saline with Tween-80 98 % of control | dose: 37.5 mg/kg/injection, schedule: Q03HX024 (ip), vehicle: saline with Tween-80 94 % of control

O=C1C(Cl)=C(Cl)C(=O)c2ccccc21
inactive: dose: 5.0 mg/kg/injection, schedule: Q01DX009 (ip), vehicle: saline with Tween-80 87 % of control | dose: 10.0 mg/kg/injection, schedule: Q01DX009 (ip), vehicle: saline with Tween-80 87 % of control

CN(C)CCCc1c2ccccc2nc2ccc(Cl)cc12
inactive: dose: 12.5 mg/kg/injection, schedule: Q04DX003 (ip), vehicle: saline 117 % of control | dose: 25.0 mg/kg/injection, schedule: Q04DX003 (ip), vehicle: saline 114 % of control | dose: 50.0 mg/kg/injection, schedule: Q04DX003 (ip), vehicle: saline 108 % of control

CC1(C)NC(=O)C(/C=C/c2ccccc2)O1 (stereo unspecified)
inactive: [1] 96 % of control | [2] 109 % of control | [3] 121 % of control | [10] 112 % of control | [11] 86 % of control

CC(=O)CC(=O)Oc1ccccc1OC(C)=O
inactive: [9] 94 % of control | [10] 100 % of control

Cc1ccc([N+](=O)[O-])c(O)c1[N+](=O)[O-]
inactive: [9] 100 % of control | [11] 90 % of control

CC(C)C(=O)[O][Sn]([CH3])([CH3])[CH3]
inactive: dose: 0.19 mg/kg/injection, schedule: Q01DX009 (ip), vehicle: saline 107 % of control | dose: 0.38 mg/kg/injection, schedule: Q01DX009 (ip), vehicle: saline 105 % of control | dose: 0.75 mg/kg/injection, schedule: Q01DX009 (ip), vehicle: saline 100 % of control

CCOc1ccc2cc(S(=O)(=O)O)ccc2c1N
inactive: [7] 95 % of control | [8] 87 % of control | dose: 400.0 mg/kg/injection, schedule: Q01DX009 (ip), vehicle: saline with Tween-80 95 % of control

CC(=O)CC(=O)NCc1ccncc1
inactive: dose: 100.0 mg/kg/injection, schedule: Q01DX009 (ip), vehicle: saline 118 % of control | dose: 200.0 mg/kg/injection, schedule: Q01DX009 (ip), vehicle: saline 112 % of control | dose: 400.0 mg/kg/injection, schedule: Q01DX009 (ip), vehicle: saline 116 % of control

O=C(NNCc1ccccc1)c1ccccn1
inactive: [1] 90 % of control | [3] 90 % of control | [9] 88 % of control and 100 % of control

C=C(C)C12CC(C)C34OC(CCCCCCCCCCC)(OC1C3C1OC1(CO)C(O)C1(O)C(=O)C(C)=CC14C)O2 (stereo unspecified)
inactive: dose: 0.05 mg/kg/injection, schedule: Q01DX009 (ip), vehicle: distilled water + Tween-80 103 % of control | dose: 0.1 mg/kg/injection, schedule: Q01DX009 (ip), vehicle: distilled water + Tween-80 102 % of control | dose: 0.2 mg/kg/injection, schedule: Q01DX009 (ip), vehicle: distilled water + Tween-80 91 % of control | dose: 0.4 mg/kg/injection, schedule: Q01DX009 (ip), vehicle: distilled water + Tween-80 90 % of control

CCCCNc1ccc(Nc2ccccc2)cc1
inactive: dose: 25.0 mg/kg/injection, schedule: Q01DX009 (ip), vehicle: saline + alcohol 103 % of control | dose: 50.0 mg/kg/injection, schedule: Q01DX009 (ip), vehicle: saline + alcohol 104 % of control

O
inactive: dose: 6.25 mg/kg/injection, schedule: Q01DX009 (ip), vehicle: saline 96 % of control | [12] 112 % of control | dose: 18.75 mg/kg/injection, schedule: Q04DX003 (ip), vehicle: saline 95 % of control | [13] 93 % of control | dose: 37.5 mg/kg/injection, schedule: Q04DX003 (ip), vehicle: saline 97 % of control | dose: 100.0 mg/kg/injection, schedule: Q02DX009 (ip), vehicle: saline 97 % of control | dose: 200.0 mg/kg/injection, schedule: Q02DX009 (ip), vehicle: saline 100 % of control | dose: 400.0 mg/kg/injection, schedule: Q02DX009 (ip), vehicle: saline 96 % of control | dose: 600.0 mg/kg/injection, schedule: Q02DX009 (ip), vehicle: saline 103 % of control

CC1([CH2][Hg][I])CS(=O)(=O)CC(C)([CH2][Hg][I])O1 (stereo unspecified)
inactive: dose: 1.25 mg/kg/injection, schedule: Q01DX009 (ip), vehicle: saline sonified 97 % of control | dose: 2.0 mg/kg/injection, schedule: Q01DX009 (ip), vehicle: saline with Tween-80 100 % of control | dose: 2.5 mg/kg/injection, schedule: Q01DX009 (ip), vehicle: saline sonified 92 % of control | dose: 4.0 mg/kg/injection, schedule: Q01DX009 (ip), vehicle: saline sonified 102 % of control | dose: 4.0 mg/kg/injection, schedule: Q01DX009 (ip), vehicle: saline with Tween-80 94 % of control | dose: 8.0 mg/kg/injection, schedule: Q01DX009 (ip), vehicle: saline sonified 95 % of control | dose: 8.0 mg/kg/injection, schedule: Q01DX009 (ip), vehicle: saline with Tween-80 100 % of control | dose: 16.0 mg/kg/injection, schedule: Q01DX009 (ip), vehicle: saline sonified 90 % of control | dose: 16.0 mg/kg/injection, schedule: Q01DX009 (ip), vehicle: saline with Tween-80 100 % of control | dose: 32.0 mg/kg/injection, schedule: Q01DX009 (ip), vehicle: saline with Tween-80 94 % of control

COC(=O)c1cc(C)ccc1O
inactive: [6] 108 % of control | [7] 97 % of control | [8] 105 % of control

O=[N+]([O-])c1ccc2[nH]c(=S)sc2c1
inactive: [3] 97 % of control | [9] 100 % of control

Cc1ccc(CNc2cccc([N+](=O)[O-])c2)cc1
inactive: [10] 100 % of control | [11] 97 % of control

O=C(Nc1nncs1)c1cccs1
inactive: [4] 101 % of control | [5] 109 % of control | [6] 121 % of control | [7] 109 % of control | [8] 106 % of control
